Data reported in article PMC2768111 (British Journal of Cancer, 2009).
Read-outs that look alike come from different tables or passages of the source.

Columns and labels:
PTK5 = PTK5 (Homo sapiens, UniProt P42685); experiment: IC50 Profiler Express kinase assay; format: biochemical
[1] = tested on: human bone marrow progenitor cells; experiment: Bone marrow progenitor growth; format: cell-based; conditions: CFU-GM, 240 h
TAO2 = biological target: T1, TAO2 (Homo sapiens, UniProt Q9UL54); experiment: IC50 Profiler Express kinase assay; format: biochemical
T1 sequence (Q9UL54 1-1235): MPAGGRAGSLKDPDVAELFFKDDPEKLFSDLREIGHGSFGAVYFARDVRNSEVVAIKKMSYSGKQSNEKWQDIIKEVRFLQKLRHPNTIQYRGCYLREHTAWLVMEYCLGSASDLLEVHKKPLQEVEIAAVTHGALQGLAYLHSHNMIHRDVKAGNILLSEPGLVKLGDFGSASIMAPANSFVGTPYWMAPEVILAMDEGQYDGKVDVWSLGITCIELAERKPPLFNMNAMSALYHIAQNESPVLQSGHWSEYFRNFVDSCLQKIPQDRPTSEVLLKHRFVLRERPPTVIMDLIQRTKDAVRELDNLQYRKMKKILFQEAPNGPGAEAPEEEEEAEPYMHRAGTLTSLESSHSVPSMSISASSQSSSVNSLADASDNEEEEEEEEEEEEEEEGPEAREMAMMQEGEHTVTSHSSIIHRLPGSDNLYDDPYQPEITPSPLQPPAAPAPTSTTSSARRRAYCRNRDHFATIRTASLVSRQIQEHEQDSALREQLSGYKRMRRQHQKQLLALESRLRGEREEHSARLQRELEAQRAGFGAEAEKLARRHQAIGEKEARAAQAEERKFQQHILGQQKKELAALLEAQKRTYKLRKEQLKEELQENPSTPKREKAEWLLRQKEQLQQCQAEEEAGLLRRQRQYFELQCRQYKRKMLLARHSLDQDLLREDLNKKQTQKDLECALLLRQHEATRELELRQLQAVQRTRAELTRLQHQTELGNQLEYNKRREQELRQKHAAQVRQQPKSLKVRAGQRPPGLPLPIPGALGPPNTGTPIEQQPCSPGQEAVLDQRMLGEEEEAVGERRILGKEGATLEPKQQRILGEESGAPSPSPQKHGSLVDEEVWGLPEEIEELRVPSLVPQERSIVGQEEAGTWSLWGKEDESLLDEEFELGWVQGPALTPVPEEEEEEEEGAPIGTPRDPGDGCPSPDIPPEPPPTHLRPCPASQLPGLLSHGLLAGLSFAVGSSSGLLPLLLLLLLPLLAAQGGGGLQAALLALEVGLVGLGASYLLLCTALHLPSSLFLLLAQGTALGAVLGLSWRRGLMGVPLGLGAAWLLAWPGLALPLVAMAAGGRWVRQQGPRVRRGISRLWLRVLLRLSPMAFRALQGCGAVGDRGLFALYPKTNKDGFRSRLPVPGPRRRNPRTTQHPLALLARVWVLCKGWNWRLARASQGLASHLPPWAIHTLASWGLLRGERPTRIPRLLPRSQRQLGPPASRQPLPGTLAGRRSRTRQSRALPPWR

PTK5, sequence (P42685 whole entry): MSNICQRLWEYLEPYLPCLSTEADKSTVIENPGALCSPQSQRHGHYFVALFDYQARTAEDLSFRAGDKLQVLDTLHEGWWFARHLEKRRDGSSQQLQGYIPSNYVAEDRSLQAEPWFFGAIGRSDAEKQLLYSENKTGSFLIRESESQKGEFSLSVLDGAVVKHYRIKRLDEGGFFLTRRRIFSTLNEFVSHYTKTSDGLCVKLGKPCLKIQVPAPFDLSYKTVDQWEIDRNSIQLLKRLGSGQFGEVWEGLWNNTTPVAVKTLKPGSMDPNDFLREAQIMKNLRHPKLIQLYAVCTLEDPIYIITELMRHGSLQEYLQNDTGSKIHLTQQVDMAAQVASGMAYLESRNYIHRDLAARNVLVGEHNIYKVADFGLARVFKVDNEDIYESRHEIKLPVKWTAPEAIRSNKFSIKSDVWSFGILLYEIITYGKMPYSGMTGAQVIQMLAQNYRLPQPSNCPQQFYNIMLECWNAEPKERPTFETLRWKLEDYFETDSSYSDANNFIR

**Q.** For Cc1ccc(Nc2nccc(N(C)c3ccc4c(C)n(C)nc4c3)n2)cc1S(N)(=O)=O [Pazopanib], which IC50 (PTK5) is on record?
**A.** 97 nM

**Q.** What about the IC50 ([1]; read-out: IC50, GM-CSF–driven CFU-GM formation) of the same compound?
**A.** 1000 nM

**Q.** What about the IC50 (TAO2) of the same compound?
**A.** 382 nM

**Q.** With CCN(CC)CCNC(=O)c1c(C)[nH]c(/C=C2\C(=O)Nc3ccc(F)cc32)c1C [Sunitinib] as the compound, how does the IC50 ([1]; read-out: IC50, CFU-GM formation induced by GM-CSF) read?
**A.** 32.7 nM
